These results are taken from PMC3946900 (Pharmaceutical research, 2013).

The target in data set [1] is P-glycoprotein (P-gp, ABCB1; MDR1) (Homo sapiens, UniProt P08183). As to conditions: MDCK-MDR1 cells with and without CsA.
Data set [2] concerns P-gp (mdr1). As to conditions: cited from earlier work.
For data set [3], the system named is P-gp. The data set can be described thus: Compartmental models of apical efflux fit to permeability data.
Setting [4] is: 5C model, asa = 1, lipid content = 10%.

Where two headings read alike, the source gives them in different places.

Sequence of P-glycoprotein (P-gp, ABCB1; MDR1) (P08183 whole entry): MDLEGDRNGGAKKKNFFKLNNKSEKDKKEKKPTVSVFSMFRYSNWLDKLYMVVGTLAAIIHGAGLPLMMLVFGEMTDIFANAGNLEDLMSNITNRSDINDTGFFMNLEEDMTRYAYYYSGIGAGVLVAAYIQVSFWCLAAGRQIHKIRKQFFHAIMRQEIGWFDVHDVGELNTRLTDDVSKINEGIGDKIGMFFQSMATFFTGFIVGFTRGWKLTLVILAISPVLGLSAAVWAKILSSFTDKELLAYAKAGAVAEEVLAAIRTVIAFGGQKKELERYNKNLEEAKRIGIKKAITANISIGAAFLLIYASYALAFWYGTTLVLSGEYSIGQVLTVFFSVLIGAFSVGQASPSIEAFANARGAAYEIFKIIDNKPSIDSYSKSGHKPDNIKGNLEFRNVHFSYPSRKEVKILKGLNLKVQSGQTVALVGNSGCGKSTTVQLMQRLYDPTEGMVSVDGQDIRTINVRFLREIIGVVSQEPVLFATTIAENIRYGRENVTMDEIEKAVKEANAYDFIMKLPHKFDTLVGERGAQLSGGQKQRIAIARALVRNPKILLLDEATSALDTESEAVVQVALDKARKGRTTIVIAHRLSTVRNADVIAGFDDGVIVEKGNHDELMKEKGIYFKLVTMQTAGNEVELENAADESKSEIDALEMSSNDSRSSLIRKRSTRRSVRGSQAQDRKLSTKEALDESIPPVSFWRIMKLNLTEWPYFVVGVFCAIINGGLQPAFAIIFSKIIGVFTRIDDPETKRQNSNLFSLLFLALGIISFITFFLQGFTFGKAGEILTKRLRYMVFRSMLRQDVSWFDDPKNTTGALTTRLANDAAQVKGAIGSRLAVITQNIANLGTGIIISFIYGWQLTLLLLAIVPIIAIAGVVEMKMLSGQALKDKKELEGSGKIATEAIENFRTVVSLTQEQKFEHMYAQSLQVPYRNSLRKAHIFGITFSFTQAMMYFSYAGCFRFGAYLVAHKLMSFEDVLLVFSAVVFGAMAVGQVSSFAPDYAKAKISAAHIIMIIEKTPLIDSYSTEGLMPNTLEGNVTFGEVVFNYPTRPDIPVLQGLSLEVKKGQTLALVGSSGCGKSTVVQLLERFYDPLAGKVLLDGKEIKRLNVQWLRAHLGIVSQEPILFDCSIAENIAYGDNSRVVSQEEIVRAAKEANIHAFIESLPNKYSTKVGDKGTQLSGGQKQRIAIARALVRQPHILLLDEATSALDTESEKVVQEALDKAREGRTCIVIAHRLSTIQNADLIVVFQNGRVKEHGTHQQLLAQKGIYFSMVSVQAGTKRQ

In the case of `CN(C)C(=O)C(CCN1CCC(O)(c2ccc(Cl)cc2)CC1)(c1ccccc1)c1ccccc1` [Loperamide], the “permeability (qualitative)” value in data set [1] is reported as “high permeability”.
As to `C/C=C/C[C@@H](C)C(=O)[C@H]1C(=O)N[C@@H](C(C)C)C(=O)N(C)CC(=O)N(C)[C@@H](CC(C)C)C(=O)N[C@@H](C(C)C)C(=O)N(C)[C@@H](CC(C)C)C(=O)N[C@@H](C)C(=O)N[C@H](C)C(=O)N(C)[C@@H](CC(C)C)C(=O)N(C)[C@@H](CC(C)C)C(=O)N(C)[C@@H](C(C)C)C(=O)N1C` [SDZ PSC 833], the “Brain Conc. Ratio mdr1(−/−)/mdr1(+/+)” value in data set [2] (mice, brain) is recorded as 2.1. The “Liver Conc. Ratio mdr1(−/−)/mdr1(+/+)” value in data set [2] (mice, liver) is listed as 0.9.
`Cc1c(O)cccc1C(=O)N[C@@H](CSc1ccccc1)[C@H](O)CN1C[C@H]2CCCC[C@H]2C[C@H]1C(=O)NC(C)(C)C` [Nelfinavir]: in data set [2] (mice, brain), the “Brain Conc. Ratio mdr1(−/−)/mdr1(+/+)” value is given as 16.1. Also, the “Liver Conc. Ratio mdr1(−/−)/mdr1(+/+)” value in data set [2] (mice, liver) is recorded as 3.0.
In the case of `Cc1nccn1CC1CCc2c(c3ccccc3n2C)C1=O` (stereo not shown) [Ondansetron], the “Brain Conc. Ratio mdr1(−/−)/mdr1(+/+)” value in data set [2] (mice, brain) is on record as 4.0. Also, in data set [2] (mice, liver), the “Liver Conc. Ratio mdr1(−/−)/mdr1(+/+)” value is 0.9.
For the compound `CO[C@H]1C[C@H](O[C@@H]2/C(C)=C/C[C@@H]3C[C@@H](C[C@]4(CC[C@H](C)[C@@H](C5CCCCC5)O4)O3)OC(=O)[C@@H]3C=C(C)/C(=N/O)[C@H]4OC/C(=C\C=C\[C@@H]2C)[C@]43O)O[C@@H](C)[C@@H]1O` [Selamectin], in data set [2] (mouse, in vivo), the “Brain Conc. Ratio mdr1(−/−)/mdr1(+/+)” value is 4.9 and the “Liver Conc. Ratio mdr1(−/−)/mdr1(+/+)” value is 0.5.
For `Nc1cc(N2CCCCC2)nc(N)[n+]1[O-]` [Minoxidil], the “CLae (active apical efflux clearance)” value in data set [3] was 0.021 µL/min.
As for `CC[C@]1(O)C[C@@H]2CN(CCc3c([nH]c4ccccc34)[C@@](C(=O)OC)(c3cc4c(cc3OC)N(C)[C@H]3[C@@](O)(C(=O)OC)[C@H](OC(C)=O)[C@]5(CC)C=CCN6CC[C@]43[C@@H]65)C2)C1` [Vinblastine], the “Brain Conc. Ratio mdr1(−/−)/mdr1(+/+)” value in data set [2] (mice, brain) is 22.4. For the same compound, the “Liver Conc. Ratio mdr1(−/−)/mdr1(+/+)” value in data set [2] (mice, liver) was 1.8.
`C=CC[C@@H]1/C=C(\C)C[C@H](C)C[C@H](OC)[C@H]2O[C@@](O)(C(=O)C(=O)N3CCCC[C@H]3C(=O)O[C@H](/C(C)=C/[C@@H]3CC[C@@H](O)[C@H](OC)C3)[C@H](C)[C@@H](O)CC1=O)[C@H](C)C[C@@H]2OC` [Tacrolimus]: in data set [2] (mouse, in vivo), the “Brain Conc. Ratio mdr1(−/−)/mdr1(+/+)” value is recorded as 6.0 and the “Liver Conc. Ratio mdr1(−/−)/mdr1(+/+)” value was 1.7.
For the compound `O=C(O)C[C@H](O)C[C@H](O)/C=C/c1c(C2CC2)nc2ccccc2c1-c1ccc(F)cc1` [Pitavastatin], in data set [2] (mice, brain), the “Brain Conc. Ratio mdr1(−/−)/mdr1(+/+)” value is reported as 1.3. Besides, the “Liver Conc. Ratio mdr1(−/−)/mdr1(+/+)” value in data set [2] (mice, liver) is 0.88. In data set [3] (setting [4]), the “CLae (active apical efflux clearance)” value was found to be 0.030 µL/min and the “CLi (diffusion clearance into an explicit membrane compartment)” value was 3.5 µL/min.
As to `CN(C(=O)C(c1ccccc1)c1ccccc1)[C@H](CN1CC[C@H](O)C1)c1ccccc1` [Asimadoline], the “Brain Conc. Ratio mdr1(−/−)/mdr1(+/+)” value in data set [2] (mice, brain) was 9.1. For the same compound, the “Liver Conc. Ratio mdr1(−/−)/mdr1(+/+)” value in data set [2] (mice, liver) is 1.1.
On to `Cc1nnc2n1-c1sc(CCC(=O)N3CCOCC3)cc1C(c1ccccc1Cl)=NC2` [Apafant], for which the “Brain Conc. Ratio mdr1(−/−)/mdr1(+/+)” value in data set [2] (mice, brain) is listed as 73.6. The “Liver Conc. Ratio mdr1(−/−)/mdr1(+/+)” value in data set [2] (mice, liver) was 4.5.
